Source: patent US20130303788A1, “METHOD OF PRODUCING BIPHENOLIC COMPOUND, NOVEL BIPHENYL COMPOUND AND SYNTHESIS METHOD THEREOF, AND PHARMACEUTICAL COMPOSITION FOR TREATING PARKINSON'S DISEASE” (Tzu Chi University, priority 2012, published 2013)

Key:
[1] = tested on: SH-SY5Y human neuroblastoma cells; experiment: Effects on oxidative stress (TBHP or CHP), MTT assay; format: cell-based; conditions: for prevention of cell death (relative cell viability) after exposure to CHP / prevention of cell death (relative cell viability) after exposure to TBHP: 10 μM for 30 minutes, vs pathological control, FIG. 9; for prevention of cell death (relative cell viability) after exposure to CHP: then CHP 300 μM for 3 hours; for prevention of cell death (relative cell viability) after exposure to TBHP: then TBHP 300 μM for 3 hours
Method: (§1) 3-(4,5-Dimethylthiazol-2-yl)-2,5-diphenyltetrazolium bromide (MTT) assay was conducted generally as follows. A MTT solution was added to culture of the cells in the respective well so that a MTT concentration of 0.5 mg/mL was reached, followed by cultivation for 4 hours. The liquid in the respective well was removed, and dimethylsulfoxide (DMSO) was added into the respective well to dissolve formazan dye. Absorbance of the mixture in the respective well at 570 nm (OD570) was measured using an OPTImax microplate reader (Molecular Devices).
The SH-SY5Y human neuroblastoma cells were respectively treated with products 1, 2, 3, 4, 5, 7, and 3,3′-diallyl-biphenyl-4,4′-diol (compound 55) (10 μM) for 30 minutes. 3,3′-diallyl-biphenyl-4,4′-diol (compound 55) was prepared from commercially available 4,4′-biphenol (compound 54) generally according to the method as described in Ablard, F. et al., Bioorg. Med. Chem. Lett. 2007, 17, 4428. Subsequently, the SH-SY5Y human neuroblastoma cells were exposed to cumene hydroperoxide (CHP) or tert-butyl hydroperoxide (TBHP) (300 μM, Riedel-de Haen) for 3 hours after the treatment with the respective biphenolic compound of formula (I).
(§2) Cell viability was evaluated as follows. The SH-SY5Y human neuroblastoma cells were subjected to the MTT assay as described in section 1 of General Procedures. The relative cell viability (%) was calculated by substituting the absorbance into the following formula:
(§3) where D=relative cell viability • E=OD570 of the pathological control, or the SH-SY5Y human neuroblastoma cells treated with the respective biphenolic compound of formula (I) • F=OD570 of the normal control The obtained data were subjected to the statistical analysis as described in section 5 of General Procedures.

[2] = tested on: inflammatory pain; conditions: Lin Yi-Ruu et al. (2007); cited from earlier work
[3] = tested on: excitotoxicity induced by excitatory amino acids; conditions: Lin Yi-Ruu et al. (2006); cited from earlier work
[4] = tested on: SH-SY5Y human neuroblastoma cells; experiment: Effects on MPP+ neurotoxicity, MTT assay; format: cell-based; conditions: 10 μM or 30 μM; MPP+ 1 mM for 24 hours; FIG. 10
Method: as §1
SH-SY5Y human neuroblastoma cells were exposed to neurotoxic 1-methyl-4-phenylpyridinium (MPP^+) (1 mM) for 24 hours, while the same were treated with the respective one of products 1, 2, 3, 4, 5, 7, and 3,3′-diallyl-biphenyl-4,4′-diol (compound 55) (10 μM or 30 μM).
as §2
as §3, with “G=relative” for “D=relative”, “H=OD570” for “E=OD570”, “I=OD570” for “F=OD570”

[5] = tested on: mouse model of PD (6-OHDA unilateral striatal lesion); experiment: Apomorphine-induced rotation test in 6-OHDA mouse model of PD; format: in vivo, NMRI mice
Method: The respective NMRI mouse was anesthetized with ketamine ([…], intraperitoneally). Subsequently, the respective NMRI mouse was placed into a stereotactic frame with nose and ear bars specially designed for mice. 6-hydroxydopamine (6-OHDA) was injected with saline containing 0.02% ascorbic acid (as a vehicle) into the right striatum of the respective NMRI mouse so that unilateral striatal lesion was induced (i.e., damage to dopaminergic neurons in the unilateral striatum was induced). The injection was conducted at a rate of 1 μL/minute using a Hamilton syringe at the following coordinates: AP: −0.9 mm; ML: −1.9 mm; DV: −2.2 mm with respect to bregma, and a final dose of 15 μg was administered. The needle was left standing for 5 minutes after the injection was finished, and was slowly withdrawn.
The respective NMRI mouse was allowed to habituate to the ambient environment for 10 minutes before the apomorphine-induced rotation test was performed. Apomorphine was then injected intraperitoneally into the respective NMRI mouse at a dose of 0.5 mg/kg. The respective NMRI mouse was placed in a glass bowl with a diameter of 20 cm and was attached to an automatic rotometer (TSE, Bad Homburg, Germany) via a specially designed harness. Each circular movement exceeding 30° was recorded. The contralateral movements (toward the nonlesioned side) and ipsilateral movements (toward the lesioned side) of the NMRI mice were counted during a period of 60 minutes. The net rotation was calculated according to the following formula:
where A=net rotation • B=the total number of ipsilateral movements during the period of 60 minutes • C=the total number of contralateral movements during the period of 60 minutes 4. Determination of TH (Tyrosine Hydroxylase) Expression Level and iNOS (Inducible Nitric Oxide Synthase) Expression Level: […]
6-OHDA was injected into NMRI mice according to the method as described in section 2 of General procedures. Product 1 or product 2 was administered intraperitoneally to the respective NMRI mouse at a dose of 5 mg/kg, 1 mg/kg, 0.5 mg/kg, 0.1 mg/kg, or 0.05 mg/kg for 14 consecutive days, starting on Day 7 after the 6-OHDA injection. NMRI mice into which a vehicle (saline containing 0.02% ascorbic acid) was injected (generally according to the method as described in section 2 of General Procedures, except that 6-OHDA was not injected), and which were not treated with product 1 or product 2 after the injection of the vehicle, served as a sham operated control. NMRI mice into which 6-OHDA was injected and which were not treated with product 1 or product 2 after the 6-OHDA injection served as a pathological control. The rotational behavior of the NMRI mice was evaluated using the apomorphine-induced rotation test as described in section 3 of General Procedures on Days 7, 14, and 21 after the 6-OHDA injection.

[6] = tested on: TH (Tyrosine Hydroxylase); experiment: TH expression level (TH immunohistochemistry) in 6-OHDA mouse model of PD; format: in vivo, NMRI mice; conditions: i.p. 14 consecutive days starting Day 7, Day 21 after 6-OHDA, 16
Method: The respective NMRI mouse was deeply anaesthetized with thiopental (50 mg/kg, intraperitoneally). The respective NMRI mouse was perfused transcardially with a heparin solution (0.05% heparin in 0.1 M PBS), and was subsequently perfused with 100 mL of ice-cold fixative (4% paraformaldehyde in 0.1 M PBS). The brain of the respective NMRI mouse was removed and was postfixed in the same ice-cold fixative for 12 hours, followed by dehydration in 30% sucrose in 0.1 M PBS. The brain was frozen and was subjected to tissue slicing. Serial coronal sections (a thickness of 20 μm) were cut on a freezing microtome and were placed in PBS. The sections were later processed for free-floating TH or iNOS immunohistochemistry.
The sections were rinsed three times with PBS (30 minutes for each time), were treated with 3% H2O2/10% methanol in PBS for 30 minutes for quenching the endogenous peroxidase activity, and were rinsed three times with PBS. After preincubation with 0.5% normal goat serum (NGS)/0.2% Triton in PBS, the sections were incubated with a primary antibody (anti-TH antibody or anti-iNOS antibody, 1:5000, Novus Biologicals, Inc., Littleton, Colo., USA) in 0.5% NGS/PBS at 4° C. for 16-18 hours. After being rinsed three times with PBS, the sections were incubated with a biotinylated goat anti-rabbit IgG (1:200) in PBS for 1 hour. Subsequently, the sections were rinsed three times with PBS and were stained with 0.05% diaminobenzidine/0.03% H2O2 in PBS for 5 minutes. The respective section was placed on a gelatin-coated slide, dehydrated through ascending concentrations of alcohol, and covered with a slipcover for observation under a light microscope.
The obtained data were subjected to the statistical analysis as described in section 5 of General Procedures. TH expression level in the striatum was determined according to the method as described in section 4 of General Procedures.
TH expression level in the striatum and the substantia nigra (SN), and iNOS expression level in the striatum were determined according to the method as described in section 4 of General Procedures on Day 21 after the injection of 6-OHDA or the vehicle.
In addition, the optical density regarding the lesioned and unlesioned sites in the striatum and SN of the NMRI mice (e.g., the sham operated control, the pathological control, and the NMRI mice treated with product 1) was determined from the obtained photomicrographs illustrating TH expression level via ImageJ software (National Institutes of Health). The relative optical density was calculated using the following formula:
where J=relative optical density • K=optical density of the lesioned site • L=optical density of the unlesioned site

SMILES	prevention of cell death (relative cell viability) after exposure to CHP [1]	prevention of cell death (relative cell viability) after exposure to TBHP [1]	concentration dependence of alleviation of MPP+ cytotoxicity [4]	further results
C=CCc1cc(-c2ccc(O)c(CC=C)c2)ccc1O [compound 55, 3,3′-diallyl-biphenyl-4,4′-diol]	significantly prevented cell death	significantly prevented cell death	–	–
C=CCc1ccc(O)c(-c2cc(CC=C)ccc2O)c1 [magnolol, reference compound]	–	–	–	alleviation of inflammatory pain in an animal model [2]: effective in alleviating inflammatory pain; neuroprotective effects via anti-oxidative abilities and antagonist actions against excitotoxicity [3]: able to exert neuroprotective effects
C=CCc1cc(-c2cc(CCC)ccc2O)ccc1O [product 2, 3′-Allyl-5-propyl-biphenyl-2,4′-diol]	significantly prevented cell death	significantly prevented cell death	alleviated the cytotoxicity of MPP^+ in a concentration-dependent manner	unilateral rotations (apomorphine-induced), subchronic post-treatment, 0.1 mg/kg ([5]; 0.1 mg/kg i.p., 14 consecutive days starting Day 7 after 6-OHDA, FIG. 13): significantly inhibited unilateral rotations; unilateral rotations (apomorphine-induced), subchronic post-treatment, 0.5 mg/kg ([5]; 0.5 mg/kg i.p., 14 consecutive days starting Day 7 after 6-OHDA, FIG. 13): significantly inhibited unilateral rotations; unilateral rotations (apomorphine-induced), subchronic post-treatment, 1 mg/kg ([5]; 1 mg/kg i.p., 14 consecutive days starting Day 7 after 6-OHDA, FIG. 13): significantly inhibited unilateral rotations; restoring activity against neurotoxin-induced motor dysfunction compared with product 1 ([5]; subchronic post-treatment, 14 days starting Day 7 after 6-OHDA): more potent restoring activity; rank among the tested biphenolic compounds in preventing cell death, CHP ([1]; 10 μM, CHP 300 μM 3 hours): the most effective in preventing cell death among them; rank among the tested biphenolic compounds in preventing cell death, TBHP ([1]; 10 μM, TBHP 300 μM 3 hours): the most effective in preventing cell death among them; loss of TH-ir fibers in the striatum, subchronic post-treatment ([6]; FIGS. 14, 15(A)): significantly alleviated the loss of TH-ir fibers; loss of TH-ir fibers in the substantia nigra (SN), subchronic post-treatment ([6]; FIGS. 14, 15(B)): significantly alleviated the loss of TH-ir fibers
CCCc1ccc(O)c(-c2ccc(O)c(CCC)c2)c1 [product 3, 5,3′-Dipropyl-biphenyl-2,4′-diol]	significantly prevented cell death	significantly prevented cell death	alleviated the cytotoxicity of MPP^+ in a concentration-dependent manner	–
C=CCc1ccc(O)c(-c2ccc(O)c(CCC)c2)c1 [product 4, 5-Allyl-3′-propyl-biphenyl-2,4′-diol]	significantly prevented cell death	significantly prevented cell death	alleviated the cytotoxicity of MPP^+ in a concentration-dependent manner	–
C#CCc1ccc(O)c(-c2ccc(O)c(CC=C)c2)c1 [product 5, 3′-Allyl-5-prop-2-ynyl-biphenyl-2,4′-diol]	significantly prevented cell death	significantly prevented cell death	alleviated the cytotoxicity of MPP^+ in a concentration-dependent manner	–
C=CCc1cc(-c2cccc(O)c2CC=C)ccc1O [product 7, 2,3′-Diallyl-biphenyl-3,4′-diol]	significantly prevented cell death	significantly prevented cell death	alleviated the cytotoxicity of MPP^+ in a concentration-dependent manner	–
